Source: US20240293323A1, “PHARMACEUTICAL COMPOSITIONS OF AN EPIDERMAL GROWTH FACTOR RECEPTOR INHIBITOR” (Blueprint Mdeicines Coroporation, priority 2021, published 2024)

Test: Aqueous solubility
Format: physicochemical

In the case of `CO[C@@H]1CCN(c2nccc(Nc3cc4c(C(C)C)ccc(N5C[C@H](CS(C)(=O)=O)[C@H]5C)c4cn3)n2)C[C@@H]1F` [Compound (I), N-(2-((3S,4R)-3-fluoro-4-methoxypiperidin-1-yl)pyrimidin-4-yl)-5-isopropyl-8-((2R,3S)-2-methyl-3-((methylsulfonyl)methyl)azetidin-1-yl)isoquinolin-3-amine], the aqueous solubility is reported as “low aqueous solubility”.
